Measurements from patent US7241902B2, “Allylmercaptocaptopril compounds and uses thereof” (Yeda Research and Development Co. Ltd., priority 2001, dated 2007).

Assays:
[1] = system: Sprague-Dawley rats fed fructose-rich diet; experiment: Fructose-rich diet rat model (Reaven's model): blood pressure, serum triglycerides, insulin, body weight; format: in vivo; details: for effect on serum insulin levels: FIG. 5
Method: In the present study, the effects of CPSSA and captopril on blood pressure, as well as serum levels of triglycerides and insulin, were compared. RESULTS
Model Sprague-Dawley male rates, five rats/group, 220–240 g body weight, were fed with a fructose-rich diet for three weeks, followed by two weeks of treatment with either CPSSA or captopril predissolved in the drinking water in doses of CPSSA of 40 and 57 mg/kg and 80 mg/kg captopril, together with the fructose-rich diet. The control group was fed only the fructose-rich diet. Measurements of body weight, blood pressure, serum levels of triglycerides and insulin were conducted at 0, 3, and 5 weeks into the treatment.

papain = target: T1, papain (Carica papaya, UniProt P00784); experiment: SH modification of papain (residual enzyme activity, benzoyl arginine-p-nitro anilide hydrolysis); format: biochemical
T1 sequence (P00784 134-345): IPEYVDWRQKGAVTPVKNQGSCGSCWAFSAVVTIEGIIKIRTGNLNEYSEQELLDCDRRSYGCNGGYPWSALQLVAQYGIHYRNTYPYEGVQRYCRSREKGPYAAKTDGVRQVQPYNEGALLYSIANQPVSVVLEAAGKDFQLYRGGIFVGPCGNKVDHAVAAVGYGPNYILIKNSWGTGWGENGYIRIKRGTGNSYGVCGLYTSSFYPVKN
Method: CPSSA (0–5 mM) modification of activated and gel-filtered papain was conducted at room temperature in 50 mM sodium acetate, 2 mM EDTA pH 6.1. The inhibited papain was reactivated with 5 mM reduced glutathione.
Activated papain was mixed with various concentrations of CPSSA for 10 minutes at room temperature in 50 mM sodium acetate, 2 mM EDTA buffer, pH 6.5. The residual enzyme activity was measured by monitoring the rate of hydrolysis of the substrate benzoyl arginine-p-nitro anilide at 382 nm.

[2] = target: T2, angiotensin converting enzyme (Homo sapiens, UniProt P12821); experiment: Angiotensin converting enzyme activity in vitro in reference serum (Carmel et al 1979); format: biochemical; details: serial dilutions added to a reference serum; FIG. 2
T2 construct: from tissue
Method: The activity of angiotensin-converting enzyme was assayed according to Carmel et al (1979).
In order to determine if CPSSA reacts in a similar way to captopril, which inhibits the activity of angiotensin converting enzyme, serial dilutions of CPSSA were prepared.

[3] = two weeks in drinking water, CPSSA 40 and 57 mg/kg, captopril 80 mg/kg

T2 sequence (P12821 30-1232 limits assumed): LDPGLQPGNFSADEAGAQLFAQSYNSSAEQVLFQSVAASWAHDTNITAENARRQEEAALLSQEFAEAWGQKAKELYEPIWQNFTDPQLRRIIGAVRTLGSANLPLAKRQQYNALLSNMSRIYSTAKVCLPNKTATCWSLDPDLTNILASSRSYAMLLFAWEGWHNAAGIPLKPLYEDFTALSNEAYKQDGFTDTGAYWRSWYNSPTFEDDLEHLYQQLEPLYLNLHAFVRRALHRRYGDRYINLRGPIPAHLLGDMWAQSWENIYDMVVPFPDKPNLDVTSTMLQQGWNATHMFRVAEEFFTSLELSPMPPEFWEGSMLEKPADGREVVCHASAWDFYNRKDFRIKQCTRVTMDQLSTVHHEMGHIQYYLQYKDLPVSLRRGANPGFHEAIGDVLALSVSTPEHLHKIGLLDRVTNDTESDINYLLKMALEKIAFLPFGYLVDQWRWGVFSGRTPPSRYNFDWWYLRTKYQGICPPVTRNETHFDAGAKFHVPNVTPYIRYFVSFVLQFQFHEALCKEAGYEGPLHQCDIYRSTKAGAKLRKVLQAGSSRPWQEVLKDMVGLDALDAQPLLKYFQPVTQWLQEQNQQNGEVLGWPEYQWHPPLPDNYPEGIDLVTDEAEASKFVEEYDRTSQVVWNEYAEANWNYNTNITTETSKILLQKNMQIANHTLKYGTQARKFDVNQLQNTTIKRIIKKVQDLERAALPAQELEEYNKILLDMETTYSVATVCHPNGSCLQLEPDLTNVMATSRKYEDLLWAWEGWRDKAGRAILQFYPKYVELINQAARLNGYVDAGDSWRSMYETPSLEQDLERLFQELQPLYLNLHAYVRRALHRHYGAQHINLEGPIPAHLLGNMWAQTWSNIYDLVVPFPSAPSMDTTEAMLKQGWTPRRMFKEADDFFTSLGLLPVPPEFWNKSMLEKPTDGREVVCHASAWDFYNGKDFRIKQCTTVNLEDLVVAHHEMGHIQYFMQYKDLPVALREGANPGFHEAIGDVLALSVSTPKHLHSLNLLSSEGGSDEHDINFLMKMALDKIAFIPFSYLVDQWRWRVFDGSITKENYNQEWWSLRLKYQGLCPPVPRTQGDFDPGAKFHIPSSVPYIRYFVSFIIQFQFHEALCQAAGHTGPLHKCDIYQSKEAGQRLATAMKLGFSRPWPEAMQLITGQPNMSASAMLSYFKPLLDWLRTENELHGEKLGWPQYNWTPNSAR

SMILES	activity in decreasing levels of triglycerides compared with captopril ([1]; CPSSA 40 and 57 mg/kg vs captopril 80 mg/kg, FIG. 4)	effect on body weight [1, 3]	effect on blood pressure ([1]; two weeks in drinking water, CPSSA 40 and 57 mg/kg, captopril 80 mg/kg, FIG. 3)	effect on serum levels of triglycerides ([1]; two weeks in drinking water, CPSSA 40 and 57 mg/kg, captopril 80 mg/kg, FIG. 4)	effect on serum insulin levels [1, 3]	reactivation of inactivated papain (papain; 5 mM reduced glutathione)	papain enzyme activity after incubation (papain; 10 minutes at room temperature, 50 mM sodium acetate, 2 mM EDTA, CPSSA 0-5 mM, FIG. 1)	degree of inhibition of papain (papain; various concentrations of CPSSA, FIG. 1)	ACE inhibition profile compared with captopril [2]	inhibition of angiotensin converting enzyme activity [2]
C=CCSSC[C@H](C)C(=O)N1CCC[C@H]1C(=O)O [CPSSA, S-allylmercaptocaptopril]	more active than captopril	No effects on body weight	significantly decreased blood pressure	reduced the serum levels of triglycerides	decreased serum insulin levels to normal values	could be restored by reduced glutathione	significant decrease of enzyme activity	concentration dependent	essentially does not differ from the inhibition profile obtained with captopril	concentration dependant
C[C@H](CS)C(=O)N1CCC[C@H]1C(=O)O [captopril, D-3-mercapto-2-methylpropanoyl-L-proline]		No effects on body weight			decreased serum insulin levels to normal values					
